From US20250376498A1, “FUSION PROTEINS COMPRISING AN IMPROVED GLP-1 RECEPTOR AGONIST AND USES THEREOF” (Guangzhou Innogen Pharmaceutical Group Co., Ltd., priority 2022, published 2025)
Entries after “also recorded” stand apart in the source; their conditions may differ.

Tests used:
SH-SY5Y neuronal cells [1] = experiment: TNF-α-induced decrease in SH-SY5Y cell viability (CCK-8); assay type: cell-based; conditions: 60 ng/ml TNF-α, 48 hours; YN-011 10, 100, 500 nM; GABA 100 μM
Description: SH-SY5Y neuronal cells were digested using 0.25% trypsin to prepare a single-cell suspension. The single-cell suspension was seeded in a 96-well plate at a density of 10,000 cells per well in 100 μl of medium. The plate was placed in a CO2 incubator overnight (37° C., 5% CO2) to allow cell adhesion. The medium was replaced with medium containing 10% FBS or 5% FBS, and cells were stimulated with 20, 40, 60, 80, or 100 ng/ml TNF-α for 48 hours. Each drug treatment was performed in six replicate wells. After 48 hours of drug treatment, 10 μl of CCK-8 solution was added to each well, and the plate was gently shaken to mix the reagents. The plate was then incubated in a CO2 incubator for 1-4 hours. The absorbance at 450 nm was measured using a microplate reader, and cell viability was calculated using the following formula:
[formula] • A (treated): OD value of wells containing cells, CCK-8 solution, and drug solution • A (control): OD value of wells containing cells and CCK-8 solution without drug solution • A (blank): OD value of wells without cells
Please refer to section 8.1 for the experimental procedure, but the drug treatment in this experiment is different from section 8.1. […]

SH-SY5Y neuronal cells [2] = experiment: Apoptosis in TNF-α-induced SH-SY5Y cells (Annexin V-FITC/PI flow cytometry); assay type: cell-based; conditions: 60 ng/ml TNF-α, 48 hours; YN-011 10, 100, 500 nM; GABA 1, 10, 100 μM; combination 100 μM GABA + 100 nM YN-011
Description: Digest the SH-SY5Y neuronal cells in a 10 cm culture dish using 0.25% trypsin to prepare a single-cell suspension. Seed the single-cell suspension into a 12-well plate. Place the culture plate in a CO2 incubator and pre-culture overnight at 37° C. with 5% CO2 to allow the cells to adhere. Using medium containing 5% FBS, treat the cells in each well with 60 ng/ml TNF-α alone or co-treated with 10, 100, or 500 nM YN-011 at 37° C. for 48 hours. Each drug treatment is performed in three replicate wells. Collect the cells and digest the cells with 0.25% trypsin without EDTA for 1 minute. Transfer the cell suspension to a 1.5 ml EP tube, centrifuge at 1000 rpm for 5 minutes, and pellet the cells at the bottom of the tube. Resuspend […] in 100 μl Binding Buffer, add 5 μl of PI and 5 μl of Annexin V-FITC solution, and incubate at room temperature in the dark for 15 minutes. Add 400 μl of Binding Buffer to each tube, and detect using a flow cytometer (Annexin V-FITC excitation wavelength: 488 nm, emission wavelength:
520 nm; PI excitation wavelength: 535 nm, emission wavelength: 617 nm). Count the number of Annexin V-FITC positive cells and PI negative cells in each sample.
Please refer to section 8.14 for the experimental procedure, but the drug treatment in this experiment is different from that in section 8.14. […]

HMC3 microglial cells = experiment: Inflammatory factor expression in HMC3 microglial cells induced by Aβ1-42 oligomers (western blot); assay type: cell-based, human; conditions: for expression of TNF-α (protein) / expression of IL-6 (protein): 10 μM Aβ1-42 oligomers, 48 hours, YN-011 100 nM and 500 nM, combination 100 μM GABA and 100 nM YN-011; for expression of TNF-α (protein): GABA 10 µM and 100 μM; for expression of IL-6 (protein): GABA 100 μM; for inflammatory cytokine expression: Aβ1-42 oligomers (figure legends)
Description: Seed HMC3 human microglial cells into a 12-well plate. After overnight incubation at 37° C. with 5% CO2, treat the cells in each well with 10 μM Aβ1-42 oligomers alone or co-treated with 1, 10, or 100 μM GABA for 48 hours. Each drug treatment is performed in three replicate wells. After 48 hours of treatment, wash the cells with PBS and lyse the cells in RIPA buffer supplemented with protease inhibitor and phosphatase inhibitor on ice for 15 minutes. Centrifuge the cell lysate at 14,000 rpm for 30 minutes. Collect the supernatant, mix with 5× loading buffer supplemented with β-mercaptoethanol, and boil at 100° C. for 10 minutes. Separate denatured proteins by SDS-PAGE. Briefly, load 10 μg of protein onto precast mini polyacrylamide gels (SurePAGE, GenScript #M00657) and run at 120 V voltage. Subsequently, transfer the gel onto a PVDF membrane (0.22 μm pore size) at 200 mA for 90 minutes. After […], incubate the membrane at room temperature with primary antibodies diluted in 5% milk solution (TNF-α, Proteintech #60291-Ig; IL-6, Proteintech #21865-1-AP; HSP90, Proteintech #13171-1-AP) overnight at 4° C. After washing, incubate the membrane with corresponding secondary antibodies (Jackson Lab, 1:10000) at room temperature for 1 hour. After washing, visualize the antibody signals on the membrane using an ECL kit (Millipore #WBKLS0500) following the manufacturer's instructions. Calculate the relative protein levels normalized to the endogenous protein HSP90 using ImageJ.
(§1) Please refer to section 8.20 for the experimental procedure, but the drug treatment in this experiment is different from that in section 8.20. In this experiment, the drug treatment is as follows: treat the cells in each well with 10 μM Aβ1-42 oligomers alone or co-treated with 10, 100, or 500 nM YN-011 for 48 hours. Each drug treatment is performed in three replicate wells.
as §1, with “100 μM GABA and/or 100” for “10, 100, or 500”

| Molecule | SH-SY5Y cell viability (SH-SY5Y neuronal cells [1]) | apoptosis in TNF-α-induced neuronal cells (Annexin V-FITC positive, PI negative cells) (SH-SY5Y neuronal cells [2]) | expression of TNF-α (protein) (HMC3 microglial cells) | expression of IL-6 (protein) (HMC3 microglial cells) | inflammatory cytokine expression (HMC3 microglial cells) |
| --- | --- | --- | --- | --- | --- |
| NCCCC(=O)O [GABA, γ-aminobutyric acid] | significantly enhanced cell viability; also recorded: inhibiting TNF-α-induced reduction in SH-SY5Y cell viability | reduces apoptosis; also recorded: reduction of apoptosis | significantly reduce | significantly reduces | reduction of inflammatory cytokine expression |
| YN-011: GLP-1 fusion protein of SEQ ID NO: 7: GLP-1 (A8G, G22E, R36G), linker peptide and IgG2/Fc domain (C222S, A330S, P331S) (protein) HGEGTFTSDVSSYLEEQAAKEFIAWLVKGGGSSGAPPPSGGGGSERKSCVECPPCPAPPVAGPSVFLFPPKPKDTLMISRTPEVTCVVVDVSHEDPEVQFNWYVDGVEVHNAKTKPREEQFNSTFRVVSVLTVVHQDWLNGKEYKCKVSNKGLPSSIEKTISKTKGQPREPQVYTLPPSREEMTKNQVSLTCLVKGFYPSDIAVEWESNGQPENNYKTTPPMLDSDGSFFLYSKLTVDKSRWQQGNVFSCSVMHEALHNHYTQKSLSLSPG | significantly enhanced cell viability; also recorded: inhibiting TNF-α-induced reduction in SH-SY5Y cell viability | significantly reduces apoptosis; also recorded: reduction of apoptosis | significantly reduce | significantly reduce | reduction of inflammatory cytokine expression |
